Measured values published in PubChem BioAssay (NCI).
Several values for one entry are separate records, joined by “and”; a condition that tells them apart may be missing. Equal values may be shown once.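 1) Cells in 96-well plates. 2) Compound, 48 h, 5 concentrations. 3) Linear interpolation between surrounding doses. 4) Unreached endpoint = highest concentration. Here, GI50 denotes the concentration required for 50% inhibition of growth. TGI: concentration producing complete growth inhibition.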

What was measured:
Experiment in all cases: inhibition of tumour cell growth, NCI panel, 48 h
OVCAR-8 ovarian = test system: OVCAR-8 ovarian
MOLT-4 leukemia = test system: MOLT-4 leukemia
A549 NSCLC = test system: A549 NSCLC
U251 CNS = test system: U251 CNS
A498 renal = test system: A498 renal
PC-3 prostate = test system: PC-3 prostate
UO-31 renal = test system: UO-31 renal
MDA-MB-231 breast = test system: MDA-MB-231 breast

Compound | GI50 (OVCAR-8 ovarian) | TGI (OVCAR-8 ovarian) [µM] | GI50 (MOLT-4 leukemia) | TGI (MOLT-4 leukemia) [µM] | GI50 (A549 NSCLC) [µM] | TGI (A549 NSCLC) [µM] | GI50 (U251 CNS) | TGI (U251 CNS) [µM] | GI50 (A498 renal) | TGI (A498 renal) [µM] | GI50 (PC-3 prostate) | TGI (PC-3 prostate) [µM] | GI50 (UO-31 renal) [µM] | TGI (UO-31 renal) [µM] | GI50 (MDA-MB-231 breast) | TGI (MDA-MB-231 breast) [µM]
Clc1ccc2c(c1)N(C1CCCN(Cc3ccccc3)C1)c1ccccc1S2 (stereo not given) | 6.36 µM | > 100 | 16.6 µM | > 100 | 4.94 | > 100 | 4.31 µM | > 100 | 14.7 µM | > 100 | 4.4 µM | > 100 | 3.12 | > 100 | 3.35 µM | 13.1
COC1C=COC2(C)Oc3c(C)c(O)c4c(O)c(c(C5SCCS5)c(O)c4c3C2=O)NC(=O)/C(C)=C\C=CC(C)C(O)C(C)C(O)C(C)C(OC(C)=O)C1C (stereo not given) |  | 26 |  | 4.43 |  | 22.4 |  | 14.5 |  | 26.5 |  | 20 |  | 26.7 |  | 18.9
CC(=O)Nc1ccc(S(=O)(=O)N=S(C)C)cc1 |  | > 100 |  | > 100 |  | > 100 |  | > 100 |  | > 100 |  | > 100 |  | > 100 |  | > 100
Fc1ccc(-c2nn3ccccc3c2-c2ccncc2)cc1 | > 25 µM | > 25 | > 25 µM | > 25 | > 25 | > 25 | > 25 µM | > 25 | > 18.3 µM | > 25 | > 25 µM | > 25 | 8.26 | > 25 | > 25 µM | > 25
CN(C)Cc1ccc(NC(=O)c2cncc(C#Cc3cnc(N)c4ncccc34)c2)cc1F | 2.31 µM | 5.02 | 2.21 µM | 5.3 | 2.57 | 7.11 | 1.93 µM | 3.89 | 6 µM | 29 | 1.74 µM | 3.34 | 2.38 | 4.08 | 1.6 µM | 3.13
Cn1c(=O)c(Oc2ccc(F)cc2F)cc2cnc(N[C@@H]3CCOC3)nc21 | > 25 µM | > 25 | > 25 µM | > 25 | > 25 | > 25 | > 25 µM | > 25 | > 20.4 µM | > 25 | > 25 µM | > 25 | > 11 | > 16.2 | > 25 µM | > 25
Nc1ncc(-c2ccc3ncnc(N4CCc5ccc(Cl)cc54)c3c2)cc1C(F)(F)F | 2.15 µM | 22.6 | 1.63 µM | > 100 | 1.29 | 14 | 2.65 µM | 16.6 | 0.301 µM | 2.52 | 0.84 µM | 16 | 0.254 | 4.62 | 1.29 µM | 12.4
O=C(/C=C/c1ccccn1)c1ccc(OCc2nnc(-c3ccc(Cl)cc3)o2)cc1 | 2.48 µM | 5.57 | 2.91 µM | 6.68 | 2.06 | 4.82 | 1.64 µM | 3.05 | 4.5 µM | 17.2 | 1.87 µM | 3.9 | 1.81 | 3.26 | 2.27 µM | 5.09
O=C(c1ccc([N+](=O)[O-])cc1)C(Br)C(Br)c1ccnc2ccccc12 (stereo not given) |  | 42.3 |  | 14.7 |  | 30.5 |  | 4.13 |  | 25.7 |  | 21.1 |  | 3.58 |  | 27.8
O=C(Nc1cc(F)c(F)cc1C(=O)O)c1ccc(-n2ccnc2)nn1 | > 100 µM | > 100 | > 100 µM | > 100 | > 100 | > 100 | > 100 µM | > 100 | 13 µM | 82 | > 100 µM | > 100 | > 100 | > 100 | > 100 µM | > 100
O=C1Nc2ccccc2/C1=C\c1nc(-c2ccccc2F)n2ccccc12 | 2.49 µM | 8.12 | 28.2 µM | > 100 | 3.46 | 10.3 | 2.57 µM | 6.1 | 2.81 µM | 11 | 6.81 µM | 26.9 | 2.12 | 10.8 | 2.27 µM | 9.07
C=C1C(=O)O[C@H]2[C@H]1CC/C(COC(=O)/C=C\C(=O)NCc1ccc(Cn3c(=O)sn(CCI)c3=O)cc1)=C\CC[C@@]1(C)O[C@@H]21 | 2.78 µM | 8.76 | 2.24 µM | 6.32 | 14.8 | 30.5 | 7.63 µM | 20.2 | 13.9 µM | 27 | 7.37 µM | 21.5 | 2.56 | 8.47 | 2.52 µM | 6.68
COc1ccc2c(c1)CCc1cc(OC)ccc1/[N+]([O-])=[N+]\2[O-] |  | 33 |  | 20.3 |  | > 67.6 |  | 38.6 |  | 34.2 |  | 31.6 |  | 25.9 |  | 37
Cc1ccc(-c2nc(-c3nccc4ccccc34)oc2-c2ccccc2)cc1 |  | > 100 |  | > 100 |  | > 100 |  | > 100 |  | > 100 |  | > 100 |  | > 100 |  | > 100
C#C[C@@]1(O)[C@@H](CO)O[C@@H](n2cc(C(F)(F)F)c3c(N)ncnc32)[C@@H]1O | 0.243 µM | > 100 | 0.29 µM | 1.33 | 0.871 | > 19.7 | 0.409 µM |  | 0.168 µM | 0.533 | 0.427 µM | > 21.1 | 0.311 | 3.16 | 0.736 µM | > 100
CC[C@H](C)[C@H](NC(=O)[C@H]1CCCCN1C)C(=O)N(C)[C@H](C[C@@H](OC(C)=O)c1cccc(C(=O)N[C@@H](Cc2ccccc2)C[C@H](C)C(=O)O)n1)C(C)C | 0.00542 µM and 0.0025 µM | > 25 | 0.00364 µM and 0.0025 µM | > 25 |  | > 25 | 0.000744 µM and 0.0025 µM | > 25 | 0.00184 µM and < 0.0025 µM |  | 0.00273 µM and 0.0025 µM | > 25 |  | > 25 | 0.00316 µM and 0.0025 µM | > 25
COS(C)(=O)=O |  | > 2 |  | > 2 |  | > 2 |  | > 2 |  | > 2 |  | > 2 |  | > 2 |  | > 2
Cc1ccc(Cl)c(NS(=O)(=O)c2ccc(-c3cnc(C4CC4)o3)cc2)c1 | 0.258 µM | > 58.9 | 0.166 µM | > 48.3 | 0.146 | > 100 | 0.142 µM | 26.5 | 0.0286 µM | 0.303 | 0.077 µM | > 68.6 | 0.275 | > 100 | 0.651 µM | > 100
O=C(Nc1cc(Cl)ccc1O)c1cccc(Nc2ccnc(C(F)(F)F)c2)c1 | 3.77 µM | 32.1 | 1.54 µM | 4.73 | 2.94 | 66 | 3.05 µM | 83.4 | 3.28 µM | 13.4 | 2.29 µM | 11.6 | 2.3 | 11.3 | 2.63 µM | 26.7
CC(=O)/C(Br)=C/c1ccc(Br)o1 | 3.33 µM | > 35.8 | 3.03 µM | 15.3 | 26.8 | 86.4 | 14.4 µM | 27.8 | 17.4 µM | 33.7 | 8.94 µM | 27.1 | 10.2 | 29.1 | 14.8 µM | 30
COc1ccc(C(=O)c2cc3c(N)c(C(=O)Nc4cccc(Br)c4C)sc3nc2C)cc1 | 0.205 µM | > 100 | 0.109 µM | > 100 | 0.132 | > 100 | 0.0518 µM | > 100 | 0.0238 µM | 0.26 | 0.0624 µM | > 100 | 0.219 | > 100 | 0.13 µM | 17.3
CCCc1nc(Cl)c(Cl)c(Cl)n1 |  | 51 |  | 46.9 |  | > 100 |  | 30.1 |  | > 100 |  | > 100 |  | 5.61 |  | 67.9
CCC(C)C1=C(O)[N+]2([O-])Oc3ccc(C4=C(O)C(=O)C(c5ccc(O)cc5)=C(O)C4=O)cc3OC2(C(C)CC)C(=O)N1O (stereo not given) | 6.34 µM | > 100 | 11 µM | 41.8 | 9.35 | > 100 | 6.25 µM | > 100 | 5.24 µM | 41.9 | 6.14 µM | > 100 | 22.2 | > 100 | 15.5 µM | 63.8
Oc1ccc2ccccc2c1C=NCc1c(O)ccc2ccccc12 |  | > 100 |  | > 100 |  | > 100 |  | > 100 |  | 74.5 |  | > 100 |  | > 100 |  | > 100
CCN1C(=O)N(CC)C2C1NN=c1s/c(=C3\C(=O)N(C4CCCC4)c4ccccc43)c(=O)n12 (stereo not given) | 2.12 µM | > 100 | 3.42 µM | > 100 | 1.55 | > 100 | 1.57 µM | 15.6 | 0.198 µM | 0.854 | 1.15 µM | > 100 |  |  | 2.2 µM | 20.6
